Assay results reported in patent publication US20230277546A1, “AGENT FOR SUPPRESSING POST-SURGICAL CANCER RECURRENCE AND/OR METASTASIS” (ONO PHARMACEUTICAL CO., LTD., priority 2017, published 2023).
Counter-ions that a name gives are not always drawn.

Experiments:
malignant lung tumor = assay: Analysis of effects of landiolol hydrochloride in patients who underwent lung resection surgery (recurrence-free and overall survival, Kaplan-Meier); type: in vivo, human
Method: Ethics committee approval was obtained before the study was started. Among the patients who underwent lung lobectomy, the outcomes were compared between those who were treated with landiolol hydrochloride and those who were not treated with it.
For each patient the following information was drawn from the medical chart from May 2012 to Mar. 31, 2017 and recorded in clinical report form (CRF). • Background of the patient (date of birth, sex, stage of lung cancer, weight, height, and performance status) • Date of the lung cancer surgery • Whether landiolol hydrochloride was administered or not, and if administered, the dose thereof • Date on which recurrence was diagnosed (date of diagnostic imaging or date on which recurrence was clinically diagnosed) • Date on which recurrence-free survival was last confirmed • Date of death • Date on which survival was last confirmed • Whether adjuvant chemotherapy was applied or not
The 2-year recurrence-free survival rate was compared between the patients who had been treated with landiolol hydrochloride and the patients who had not been treated with it to evaluate the effect of landiolol hydrochloride.
Kaplan-Meier method as described below was employed to calculate the 2-year recurrence-free survival rate.
The recurrence was defined as follows; • The recurrence included both of recurrence diagnosed on the basis of diagnostic imaging and clinical recurrence diagnosed on the basis of aggravation of a symptom instead of the diagnostic imaging. The date of recurrence was the date of the diagnostic imaging or the date on which the clinical recurrence was diagnosed. Even if an increased tumor marker was detected previously, the fact alone was not regarded as indicating recurrence and the date of recurrence was the date of the diagnostic imaging or the date on which the clinical recurrence was diagnosed. When no recurrence was diagnosed during the observation period, the patients were censored on the day of final confirmation of recurrence-free survival. • When recurrence was diagnosed by the diagnostic imaging, the event was regarded as having occurred on the date of the diagnostic imaging that gave the definitive diagnosis, not the date of the diagnostic imaging that raised the suspicion of recurrence. When recurrence was clinically diagnosed, the event was regarded as having occurred on the date of the diagnosis. • Definitive diagnosis of recurrence may be based on biopsy analysis. When recurrence was successfully diagnosed by the clinical diagnosis before the biopsy analysis, the event was regarded as having occurred on the date of the clinical diagnosis. When recurrence was not successfully diagnosed by the clinical diagnosis alone, but finally diagnosed by the biopsy analysis, the event was regarded as having occurred on the date of the biopsy analysis. • Occurrence of any one of secondary cancer, metachronous double cancers, and metachronous multiple cancers was not regarded as the event or the censor. Unless another event was observed, the patient was regarded as being recurrence-free. […]
The recurrence-free survival and the overall survival were calculated according to the following equations; • The recurrence-free survival (days)=“date of diagnosis of recurrence or date of death for any cause, whichever came earlier”−“date of surgery”+1 • The overall survival (days)=“date of death for any cause”−“date of surgery”+1 […]

[1] = tested on: non-small cell lung cancer; assay: Multicenter, unblinded, randomized, controlled investigator-initiated clinical trial: perioperative landiolol hydrochloride to suppress postsurgical recurrence; type: in vivo, human; details: 2.5 μg/kg/min at the beginning, adjusted 0.5 to 5 μg/kg/min; continuous iv from immediately before anesthetic induction for 72 hours
Method: Patients with non-small cell lung cancer who will undergo surgery for complete resection of the cancer are involved in the study. For evaluating effectiveness and safety of landiolol hydrochloride in the patients, a multicenter, unblinded, randomized, controlled, investigator-initiated clinical trial is carried out as described below. The control group includes the patients who undergo the surgery but are not treated with landiolol hydrochloride.
Primary endpoints: recurrence-free survival (RFS) over first two postoperative years and overall survival (OS)
Secondary endpoints: <Effectiveness> For example, whether the patients are subjected to treatment of recurrence or not, and if subjected, the period until the treatment; the time until OS or the treatment of recurrence, <Safety> adverse events, incidence of postoperative complication, blood pressure, 12-lead electrocardiogram, and general laboratory test
Dosage: 2.5 μg/kg/min at the beginning and adjusted in the range of 0.5 to 5 μg/kg/min
Administration period: continuous intravenous administration is started immediately before the anesthetic induction and kept for 72 hours

[2] = vs control group without administration, after lung cancer surgery

In the case of CC1(C)OC[C@@H](COC(=O)CCc2ccc(OC[C@@H](O)CNCCNC(=O)N3CCOCC3)cc2)O1 [landiolol hydrochloride, Landiolol hydrochloride], the “Censor, (%)” value (malignant lung tumor; censored patients, first two postoperative years, test group N = 28) is reported as “(89.3) %”, the “2-year Recurrence-free survival rate [95% CI]” value (malignant lung tumor; patients after lung resection surgery, intravenous continuous 2.5 μg/kg/min from induction to completion of anesthesia, N = 28, Kaplan-Meier) is reported as 89.3% and the “Event, (%)” value (malignant lung tumor; recurrence or death events within first two postoperative years, test group N = 28, 2.5 μg/kg/min iv continuous during anesthesia) is reported as “(10.7) %”. For the same molecule, the “overall survival (Kaplan-Meier curve, FIG. 2)” value (malignant lung tumor; [2]) was “tendency that the administration of landiolol hydrochloride prolongs”, the “recurrence-free survival (Kaplan-Meier curve, FIG. 1)” value (malignant lung tumor; [2]) was “tendency that the administration of landiolol hydrochloride prolongs” and the “effect to suppress recurrence and/or metastasis of the cancer” value [1] was “confirms the effect”.
